Patent US20230085307A1, “PYRIDAZINONE COMPOUND AND HERBICIDE” (NISSAN CHEMICAL CORPORATION, priority 2019, published 2023)

Legend:
persian speedwell [1] = assay: Test Example 5: herbicidal effect by foliage application, plastic box (Table 20, symbol R); assay type: in vivo, Persian speedwell (Veronica persica); conditions: foliage application, 320 g/ha, three weeks after application
In short: (§1)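 Sow seeds spot-wise in sterilized diluvial soil; cover with ~1.5 cm soil. Grow 14 days in greenhouse, 25° C. to 30° C. Spray foliage with emulsion diluted to predetermined amount. Rate effect after 3 weeks.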

windgrass [2] = assay: Test Example 4: herbicidal effect by soil treatment (Table 19, symbol L); assay type: in vivo, windgrass (Apera spica-venti); conditions: amount of applied herbicide 320 g/ha
In short: (§2)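 Applied as a water-diluted emulsion, the compound was sprayed onto soil covering newly sown seeds. Evaluation came three weeks after application, in a greenhouse held at 25° C. to 30° C.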

green foxtail [3] = assay: Test Example 4: herbicidal effect by soil treatment (Table 19, symbol G); assay type: in vivo, green foxtail (Setaria viridis); conditions: amount of applied herbicide 320 g/ha
In short: as §2

blackgrass [4] = assay: Test Example 4: herbicidal effect by soil treatment (Table 19, symbol J); assay type: in vivo, blackgrass (Alopecurus myosuroides); conditions: amount of applied herbicide 320 g/ha
In short: as §2

Italian ryegrass [5] = assay: Test Example 5: herbicidal effect by foliage application, plastic box (Table 20, symbol K); assay type: in vivo, Italian ryegrass (Lolium multiflorum); conditions: foliage application, 320 g/ha, three weeks after application
In short: as §1

redroot pigweed [6] = assay: Test Example 5: herbicidal effect by foliage application, plastic box (Table 20, symbol N); assay type: in vivo, redroot pigweed (Amaranthus retroflexus); conditions: foliage application, 320 g/ha, three weeks after application
In short: as §1

barnyard grass [7] = assay: Test Example 3: herbicidal effect by foliage application, Wagner pot (Table 18, symbol H); assay type: in vivo, barnyard grass (Echinochloa crus-galli); conditions: 320 g/ha
In short: (§3)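 Plants were sown in alluvial soil held under 0.1–0.5 cm standing water and grown 14 days in a greenhouse at 25–30 °C. An emulsifiable formulation, water-diluted to the set dose, was then sprayed onto the foliage, and effects were scored three weeks later using previously defined criteria.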

redroot pigweed [8] = assay: Test Example 4: herbicidal effect by soil treatment (Table 19, symbol N); assay type: in vivo, redroot pigweed (Amaranthus retroflexus); conditions: amount of applied herbicide 320 g/ha
In short: as §2

persian speedwell [9] = assay: Test Example 4: herbicidal effect by soil treatment (Table 19, symbol R); assay type: in vivo, Persian speedwell (Veronica persica); conditions: amount of applied herbicide 320 g/ha
In short: as §2

oval-leafed pondweed = assay: Test Example 1: herbicidal activity, application before weed generation under submerged conditions (Table 16, symbol C); assay type: in vivo, oval-leafed pondweed (Monochoria vaginalis); conditions: amount of applied herbicide 320 g/ha
In short: (§4)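 Emulsion formulation, water-diluted to set dose, was put onto the flooded surface (4 cm depth, alluvial soil) the same day weeds were sown and 2.5-leaf rice transplanted. After 3 weeks at 25-30 °C under glass, each species was rated 0 (≤5% kill) to 5 (≥90% kill).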

southern crabgrass [10] = assay: Test Example 5: herbicidal effect by foliage application, plastic box (Table 20, symbol F); assay type: in vivo, southern crabgrass (Digitaria ciliaris); conditions: foliage application, 320 g/ha, three weeks after application
In short: as §1

velvetleaf [11] = assay: Test Example 5: herbicidal effect by foliage application, plastic box (Table 20, symbol M); assay type: in vivo, velvetleaf (Abutilon theophrasti); conditions: foliage application, 320 g/ha, three weeks after application
In short: as §1

windgrass [12] = assay: Test Example 5: herbicidal effect by foliage application, plastic box (Table 20, symbol L); assay type: in vivo, windgrass (Apera spica-venti); conditions: foliage application, 320 g/ha, three weeks after application
In short: as §1

blackgrass [13] = assay: Test Example 5: herbicidal effect by foliage application, plastic box (Table 20, symbol J); assay type: in vivo, blackgrass (Alopecurus myosuroides); conditions: foliage application, 320 g/ha, three weeks after application
In short: as §1

lambsquarters = assay: Test Example 5: herbicidal effect by foliage application, plastic box (Table 20, symbol O); assay type: in vivo, lambsquarters (Chenopodium album); conditions: foliage application, 320 g/ha, three weeks after application
In short: as §1

rice flat sedge = assay: Test Example 3: herbicidal effect by foliage application, Wagner pot (Table 18, symbol E); assay type: in vivo, rice flat sedge (Cyperus iria); conditions: 320 g/ha
In short: as §3

Japanese bulrush = assay: Test Example 1: herbicidal activity, application before weed generation under submerged conditions (Table 16, symbol B); assay type: in vivo, Japanese bulrush (Schoenoplectus juncoides); conditions: amount of applied herbicide 320 g/ha
In short: as §4

chickweed [14] = assay: Test Example 5: herbicidal effect by foliage application, plastic box (Table 20, symbol P); assay type: in vivo, common chickweed (Stellaria media); conditions: foliage application, 320 g/ha, three weeks after application
In short: as §1

wild oat [15] = assay: Test Example 4: herbicidal effect by soil treatment (Table 19, symbol I); assay type: in vivo, wild oat (Avena fatua); conditions: amount of applied herbicide 320 g/ha
In short: as §2

barnyard grass [16] = assay: Test Example 5: herbicidal effect by foliage application, plastic box (Table 20, symbol H); assay type: in vivo, barnyard grass (Echinochloa crus-galli); conditions: foliage application, 320 g/ha, three weeks after application
In short: as §1

barnyard grass [17] = assay: Test Example 4: herbicidal effect by soil treatment (Table 19, symbol H); assay type: in vivo, barnyard grass (Echinochloa crus-galli); conditions: amount of applied herbicide 320 g/ha
In short: as §2

velvetleaf [18] = assay: Test Example 4: herbicidal effect by soil treatment (Table 19, symbol M); assay type: in vivo, velvetleaf (Abutilon theophrasti); conditions: amount of applied herbicide 320 g/ha
In short: as §2

southern crabgrass [19] = assay: Test Example 4: herbicidal effect by soil treatment (Table 19, symbol F); assay type: in vivo, southern crabgrass (Digitaria ciliaris); conditions: amount of applied herbicide 320 g/ha
In short: as §2

Chinese sprangletop = assay: Test Example 3: herbicidal effect by foliage application, Wagner pot (Table 18, symbol D); assay type: in vivo, chinese sprangletop (Leptochloa chinensis); conditions: 320 g/ha
In short: as §3

Italian ryegrass [20] = assay: Test Example 4: herbicidal effect by soil treatment (Table 19, symbol K); assay type: in vivo, Italian ryegrass (Lolium multiflorum); conditions: amount of applied herbicide 320 g/ha
In short: as §2

false cleavers [21] = assay: Test Example 5: herbicidal effect by foliage application, plastic box (Table 20, symbol Q); assay type: in vivo, false cleavers (Galium spurium); conditions: foliage application, 320 g/ha, three weeks after application
In short: as §1

chickweed [22] = assay: Test Example 4: herbicidal effect by soil treatment (Table 19, symbol P); assay type: in vivo, common chickweed (Stellaria media); conditions: amount of applied herbicide 320 g/ha
In short: as §2

wild oat [23] = assay: Test Example 5: herbicidal effect by foliage application, plastic box (Table 20, symbol I); assay type: in vivo, wild oat (Avena fatua); conditions: foliage application, 320 g/ha, three weeks after application
In short: as §1

false cleavers [24] = assay: Test Example 4: herbicidal effect by soil treatment (Table 19, symbol Q); assay type: in vivo, false cleavers (Galium spurium); conditions: amount of applied herbicide 320 g/ha
In short: as §2

green foxtail [25] = assay: Test Example 5: herbicidal effect by foliage application, plastic box (Table 20, symbol G); assay type: in vivo, green foxtail (Setaria viridis); conditions: foliage application, 320 g/ha, three weeks after application
In short: as §1

late watergrass = assay: Test Example 1: herbicidal activity, application before weed generation under submerged conditions (Table 16, symbol A); assay type: in vivo, late watergrass (Echinochloa oryzicola); conditions: amount of applied herbicide 320 g/ha
In short: as §4

## CCCC(=O)Oc1c(C)nn(C)c(=O)c1-c1c(-c2ccc3c(c2)OCCO3)sc2cc(C)ccc12 [3-060]
Persian speedwell [1]
  R: persian speedwell, herbicidal effect grade: 5 (Herbicidal rate of 90% or more (almost completely withered))
Windgrass [2]
  L: windgrass, herbicidal effect grade: 0 (Herbicidal rate of 5% or less (almost no effect))
Green foxtail [3]
  G: green foxtail, herbicidal effect grade: 0 (Herbicidal rate of 5% or less (almost no effect))
Blackgrass [4]
  J: blackgrass, herbicidal effect grade: 0 (Herbicidal rate of 5% or less (almost no effect))
Italian ryegrass [5]
  K: Italian ryegrass, herbicidal effect grade: 0 (Herbicidal rate of 5% or less (almost no effect))
Redroot pigweed [6]
  N: redroot pigweed, herbicidal effect grade: 0 (Herbicidal rate of 5% or less (almost no effect))
Barnyard grass [7]
  herbicidal effect on barnyard grass (H): 3 (Herbicidal rate of 40% or more and less than 70%)
Redroot pigweed [8]
  N: redroot pigweed, herbicidal effect grade: 0 (Herbicidal rate of 5% or less (almost no effect))
Persian speedwell [9]
  R: persian speedwell, herbicidal effect grade: 3 (Herbicidal rate of 40% or more and less than 70%)
oval-leafed pondweed
  Herbicidal effect, C: oval-leafed pondweed: 0 (Herbicidal rate of 5% or less (almost no effect))
Southern crabgrass [10]
  F: southern crabgrass, herbicidal effect grade: 0 (Herbicidal rate of 5% or less (almost no effect))
Velvetleaf [11]
  M: velvetleaf, herbicidal effect grade: 0 (Herbicidal rate of 5% or less (almost no effect))
Windgrass [12]
  L: windgrass, herbicidal effect grade: 3 (Herbicidal rate of 40% or more and less than 70%)
Blackgrass [13]
  J: blackgrass, herbicidal effect grade: 3 (Herbicidal rate of 40% or more and less than 70%)
lambsquarters
  O: lambsquarters, herbicidal effect grade: 0 (Herbicidal rate of 5% or less (almost no effect))
Rice flat sedge
  herbicidal effect on rice flat sedge (E): 3 (Herbicidal rate of 40% or more and less than 70%)
Japanese bulrush
  Herbicidal effect, B: Japanese bulrush: 2 (Herbicidal rate of 20% or more and less than 40%)
Chickweed [14]
  P: chickweed, herbicidal effect grade: 5 (Herbicidal rate of 90% or more (almost completely withered))
Wild oat [15]
  I: wild oat, herbicidal effect grade: 0 (Herbicidal rate of 5% or less (almost no effect))
Barnyard grass [16]
  H: barnyard grass, herbicidal effect grade: 0 (Herbicidal rate of 5% or less (almost no effect))
Barnyard grass [17]
  H: barnyard grass, herbicidal effect grade: 0 (Herbicidal rate of 5% or less (almost no effect))
Velvetleaf [18]
  M: velvetleaf, herbicidal effect grade: 0 (Herbicidal rate of 5% or less (almost no effect))
Southern crabgrass [19]
  F: southern crabgrass, herbicidal effect grade: 0 (Herbicidal rate of 5% or less (almost no effect))
Chinese sprangletop
  herbicidal effect on Chinese sprangletop (D): 4 (Herbicidal rate of 70% or more and less than 90%)
Italian ryegrass [20]
  K: Italian ryegrass, herbicidal effect grade: 0 (Herbicidal rate of 5% or less (almost no effect))
False cleavers [21]
  Q: false cleavers, herbicidal effect grade: 0 (Herbicidal rate of 5% or less (almost no effect))
Chickweed [22]
  P: chickweed, herbicidal effect grade: 0 (Herbicidal rate of 5% or less (almost no effect))
Wild oat [23]
  I: wild oat, herbicidal effect grade: 0 (Herbicidal rate of 5% or less (almost no effect))
False cleavers [24]
  Q: false cleavers, herbicidal effect grade: 0 (Herbicidal rate of 5% or less (almost no effect))
Green foxtail [25]
  G: green foxtail, herbicidal effect grade: 0 (Herbicidal rate of 5% or less (almost no effect))
Late watergrass
  Herbicidal effect, A: late watergrass: 1 (Herbicidal rate of 5% or more and less than 20%)
